From patent publication US10294212B2 (CURADEV PHARMA PRIVATE LTD., priority 2013, dated 2019)
Structures can show the parent of a compound that is named as a salt.

Key:
[1] = target: Human indoleamine 2,3-dioxygenase1 (hIDO1) (Homo sapiens (Human), UniProt P14902); assay: In-vitro IDO1 enzyme assay (conversion of L-tryptophan to KYN); type: biochemical; details: read-out: IC50 (IDO1) Enz
How it was run: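 Kynurenine formation quantified by HPLC absorbance at 360 nm or LC/MS/MS after TCA quench and 15 min at 65 °C. Reaction: 10 nM N-His hIDO1, 30 μM tryptophan, ascorbate/methylene blue/catalase, pH 6.5 phosphate buffer, 37 °C for 30 min. Inhibition relative to 1% DMSO vehicle, fitted to IC50.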

IDO1 in HeLa cells = IDO1 in HeLa cells (Homo sapiens (Human), UniProt P14902); assay: HeLa cell based IDO1 assay (IFNγ-induced, KYN in supernatant)
Sequence of IDO1 in HeLa cells (P14902 whole entry): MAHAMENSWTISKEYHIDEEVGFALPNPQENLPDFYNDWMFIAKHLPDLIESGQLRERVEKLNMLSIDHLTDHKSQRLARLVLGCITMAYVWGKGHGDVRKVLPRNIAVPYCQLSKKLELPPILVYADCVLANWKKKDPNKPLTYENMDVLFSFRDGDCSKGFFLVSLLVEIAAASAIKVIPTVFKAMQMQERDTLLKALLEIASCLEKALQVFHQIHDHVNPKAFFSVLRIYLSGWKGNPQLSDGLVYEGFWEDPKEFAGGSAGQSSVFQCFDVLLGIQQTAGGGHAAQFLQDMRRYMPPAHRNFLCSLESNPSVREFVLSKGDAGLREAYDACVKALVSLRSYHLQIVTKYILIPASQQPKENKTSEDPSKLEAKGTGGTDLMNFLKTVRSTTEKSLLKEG
Procedure: HeLa cells were obtained from ATCC and maintained in DMEM supplemented with sodium bicarbonate (2.1 g/L), HEPES (4.1 g/L), L-glutamine (2 mM), non-essential amino acid (84 mg/L) and fetal bovine serum (10% FBS) and maintained at 95% humidity and 5% CO2 in a 37° C. incubator. Unless otherwise stated, all materials were procured from Sigma. Upon incubation with gamma-interferon (IFNγ ), HeLa cells express IDO1, which catalyzes the formation of N-formyl kynurenine from tryptophan present in growth medium. The assay was performed as follows:
Cells were plated in medium (300 μL) at a density of 0.1 million per well of a 48 well plate and hIDO1 was induced by overnight treatment with IFNγ (50 ng/mL) (Peprotech, USA). The following day, cells were washed to remove IFNγ and were incubated with specific concentrations of test compounds (typically 10 μM to 1 nM, final volume 300 μL) in Hanks Balanced Salt Solution (HBSS) containing 80 μM L-tryptophan. Following incubation, supernatant (150 μL) was transferred to a 96 well plate into which 30%TCA (304) was added and the contents further incubated at 65° C. for 15 min to fully convert N-formylkynurenine to kynurenine. The reaction mixture was then centrifuged to remove sediments and the KYN in the supernatant was estimated by UV-visible absorption spectroscopy at 360 nm using a Waters HPLC system fitted with a C-18 column. (Xiangdong Liu et al. Blood 2010, Vol-117, 3520-30; Sono described above).
Percent inhibition at each concentration of test compounds was determined by estimating the decrease in KYN with reference to the reaction control with 1% DMSO vehicle. Data were analyzed using nonlinear regression to generate IC50 values using Graph Pad Prism® 5.

[2] = target: Human TDO (hTDO)-transfected CHO-K1 cells (Homo sapiens (Human), UniProt P48775); assay: CHO-K1 cell based TDO assay; details: hTDO cellular assay
Sequence of Human TDO (hTDO)-transfected CHO-K1 cells (P48775 whole entry): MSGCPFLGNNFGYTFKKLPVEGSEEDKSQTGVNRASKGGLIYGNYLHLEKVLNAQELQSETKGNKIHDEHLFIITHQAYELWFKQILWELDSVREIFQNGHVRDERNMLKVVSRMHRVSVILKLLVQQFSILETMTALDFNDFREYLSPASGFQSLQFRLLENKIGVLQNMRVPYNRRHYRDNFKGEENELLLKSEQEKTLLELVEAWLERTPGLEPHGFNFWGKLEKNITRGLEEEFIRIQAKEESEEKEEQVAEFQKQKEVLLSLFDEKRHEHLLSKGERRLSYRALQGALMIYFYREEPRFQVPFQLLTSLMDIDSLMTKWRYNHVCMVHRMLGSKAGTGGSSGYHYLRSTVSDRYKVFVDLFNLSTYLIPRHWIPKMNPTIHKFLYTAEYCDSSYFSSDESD
How it was run: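 Kynurenine output was read by LC/MS/MS after TCA precipitation and 15 min at 65° C. Before that, CHO-K1 cells stably carrying human TDO2 were incubated 2 h with compounds (typically 31 μM to 10 nM) and 80 μM L-tryptophan in HBSS. Decrease versus DMSO vehicle gave percent inhibition, then IC50.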

Sequence of Human indoleamine 2,3-dioxygenase1 (hIDO1) (P14902 whole entry): as the sequence (P14902 whole entry) above

SMILES	IC50 [1] [nM]	IC50 (IDO1 in HeLa cells) [nM]	IC50 [2] [nM]
Nc1oc2c(-c3ccccc3)nccc2c1Nc1ccc(F)c(Cl)c1 [Compound 81, N^3-(3-Chloro-4-fluorophenyl)-7-phenylfuro[2,3-c]pyridine-2,3-diamine]	< 200	< 200	< 500
Nc1oc2cnccc2c1Nc1ccc(F)cc1Br [Compound 10, N^3-(2-Bromo-4-fluorophenyl)furo[2,3-c]pyridine-2,3-diamine]	> 1000	200 to 1000	> 2000
Cc1ccc(Nc2c(N)oc3cnccc23)cc1Br [Compound 21, N^3-(3-Bromo-4-methylphenyl)furo[2,3-c]pyridine-2,3-diamine]	200 to 1000	< 200	500 to 2000
Nc1oc2cnc(F)cc2c1Nc1ccccc1Cl [Compound 218, N^3-(2-Chlorophenyl)-5-fluorofuro[2,3-c]pyridine-2,3-diamine]	200 to 1000	< 200	500 to 2000
Cc1cc(Br)ccc1Nc1c(N)sc2ccccc12 [Compound 237, N^3-(4-Bromo-2-methylphenyl)benzo[b]thiophene-2,3-diamine]	> 1000	200 to 1000	> 2000
N#Cc1ccc2c(Nc3cccc(Br)c3)c(N)oc2c1 [Compound 115, 2-Amino-3-((3-bromophenyl)amino)benzofuran-6-carbonitrile]	< 200	< 200	< 500
Nc1oc2cnccc2c1Nc1cccc(C2CC2)c1 [Compound 42, N^3-(3-Cyclopropylphenyl)furo[2,3-c]pyridine-2,3-diamine]	< 200	< 200	> 2000
N#Cc1cccc(Nc2c(N)oc3cnccc23)c1 [Compound 99, 3-((2-Aminofuro[2,3-c]pyridin-3-yl)amino)benzonitrile]	> 1000	< 200	> 2000
Cc1cc(-c2nccc3c(Nc4ccccc4)c(N)oc23)ccn1 [Compound 239, 7-(2-Methylpyridin-4-yl)-N^3-phenylfuro[2,3-c]pyridine-2,3-diamine]	< 200	< 200	< 500
Cc1cc(-c2nc(F)cc3c(Nc4ccc(F)cc4)c(N)oc23)ccn1 [Compound 241, 5-Fluoro-N^3-(4-fluorophenyl)-7-(2-methylpyridin-4-yl)furo[2,3-c]pyridine-2,3-diamine]	< 200	< 200	< 500
Nc1oc2c(-c3ccnc(C(=O)Nc4ccccc4)c3)nccc2c1Nc1ccc(F)c(Cl)c1 [Compound 249, 4-(2-Amino-3-((3-chloro-4-fluorophenyl)amino)furo[2,3-c]pyridin-7-yl)-N-phenylpicolinamide]	< 200	200 to 1000	> 2000
Nc1oc2c(-c3ccncc3)nccc2c1Nc1ccc(F)cc1 [Compound 201, N^3-(4-Fluorophenyl)-7-(pyridin-4-yl)furo[2,3-c]pyridine-2,3-diamine]	< 200	< 200	< 500
COc1cccc(Nc2c(N)sc3ccccc23)c1 [Compound 235, N^3-(3-Methoxyphenyl)benzo[b]thiophene-2,3-diamine]	200 to 1000	< 200	< 500
CNC(=O)c1cc(-c2nccc3c(Nc4ccccc4Cl)c(N)oc23)ccn1 [Compound 219, 4-(2-Amino-3-((2-chlorophenyl)amino)furo[2,3-c]pyridin-7-yl)-N-methylpicolinamide]	< 200	< 200	500 to 2000
Nc1sc2ccccc2c1Nc1ccc(F)c(Cl)c1 [Compound 117, N^3-(3-Chloro-4-fluorophenyl)benzo[b]thiophene-2,3-diamine]	< 200	< 200	< 500
CC(C)(C)NC(=O)c1cc(-c2nccc3c(Nc4ccc(F)c(Cl)c4)c(N)oc23)ccn1 [Compound 251, 4-(2-Amino-3-((3-chloro-4-fluorophenyl)amino)furo[2,3-c]pyridin-7-yl)-N-(tert-butyl)picolinamide]	< 200	< 200	> 2000
Cc1ccc(Nc2c(N)oc3cnccc23)cc1Cl [Compound 33, N^3-(3-Chloro-4-methylphenyl)furo[2,3-c]pyridine-2,3-diamine]	< 200	< 200	500 to 2000
COc1ccc(Cl)cc1Nc1c(N)oc2cnccc12 [Compound 25, N^3-(5-Chloro-2-methoxyphenyl)furo[2,3-c]pyridine-2,3-diamine]	> 1000	200 to 1000	500 to 2000
COc1cc2c(Nc3ccc(F)c(Cl)c3)c(N)oc2c(I)n1 [Compound 167, N^3-(3-Chloro-4-fluorophenyl)-7-iodo-5-methoxyfuro[2,3-c]pyridine-2,3-diamine]	< 200	< 200	> 2000
Nc1sc2ccc(Cl)cc2c1Nc1ccc(F)cc1 [Compound 131, 5-Chloro-N^3-(4-fluorophenyl)benzo[b]thiophene-2,3-diamine]	200 to 1000	200 to 1000	500 to 2000
Nc1sc2ccc(Cl)cc2c1Nc1cccc(C(F)(F)F)c1 [Compound 133, 5-Chloro-N^3-(3-(trifluoromethyl)phenyl)benzo[b]thiophene-2,3-diamine hydrochloride]	200 to 1000	200 to 1000	500 to 2000

Other lines, results leading:

IC50 [1] [nM]	IC50 (IDO1 in HeLa cells) [nM]	IC50 [2] [nM]	SMILES
< 200	< 200	500 to 2000	Nc1oc2c(-c3ccncc3)nccc2c1Nc1ccc(F)c(C(F)(F)F)c1 [Compound 192, N^3-(4-Fluoro-3-(trifluoromethyl)phenyl)-7-(pyridin-4-yl)furo[2,3-c]pyridine-2,3-diamine]
< 200	< 200	< 500	Nc1oc2c(-c3cccnc3)nccc2c1Nc1ccc(F)c(Cl)c1 [Compound 94, N^3-(3-chloro-4-fluorophenyl)-7-(pyridin-3-yl)furo[2,3-c]pyridine-2,3-diamine]
< 200	< 200	> 2000	CCCc1nccc2c(Nc3ccc(F)c(Cl)c3)c(N)oc12 [Compound 77, N^3-(3-Chloro-4-fluoro-phenyl)-7-propyl-furo[2,3-c]pyridine-2,3-diamine]
< 200	< 200	< 500	Nc1oc2c(Br)nccc2c1Nc1ccc(F)c(Cl)c1 [Compound 159, 7-Bromo-N^3-(3-chloro-4-fluorophenyl)furo[2,3-c]pyridine-2,3-diamine]
< 200	< 200	> 2000	Nc1oc2c(-c3ccnc(C(F)(F)F)c3)nccc2c1Nc1ccc(F)c(Cl)c1 [Compound 268, N^3-(3-Chloro-4-fluorophenyl)-7-(2-(trifluoromethyl)pyridin-4-yl)furo[2,3-c]pyridine-2,3-diamine]
< 200	< 200	> 2000	Nc1oc2c(-c3ccccc3)nccc2c1Nc1cccc(C(F)(F)F)c1 [Compound 82, 7-Phenyl-N^3-(3-(trifluoromethyl)phenyl)furo[2,3-c]pyridine-2,3-diamine]
< 200	< 200	500 to 2000	Nc1oc2cnccc2c1Nc1ccc(F)c(C(F)(F)F)c1 [Compound 60, N^3-(4-Fluoro-3-(trifluoromethyl)phenyl)furo[2,3-c]pyridine-2,3-diamine]
< 200	< 200	500 to 2000	Nc1oc2c(C3CCCCC3)nccc2c1Nc1ccc(F)c(Cl)c1 [Compound 108, N^3-(3-Chloro-4-fluorophenyl)-7-cyclohexylfuro[2,3-c]pyridine-2,3-diamine]
< 200	< 200	500 to 2000	N#Cc1nccc2c(Nc3ccc(F)c(C(F)(F)F)c3)c(N)oc12 [Compound 183, 2-Amino-3-((4-fluoro-3-(trifluoromethyl)phenyl)amino)furo[2,3-c]pyridine-7-carbonitrile]
< 200	< 200	> 2000	N#Cc1nccc2c(Nc3ccccc3Cl)c(N)oc12 [Compound 182, 2-Amino-3-((2-chlorophenyl)amino)furo[2,3-c]pyridine-7-carbonitrile]
